According to patent publication US9610277B2, “Formula comprising a hypolipidemic agent” (Cadila Healthcare Limited, priority 2013, dated 2017):
Entries after “also recorded” stand apart in the source; their conditions may differ.

Key:
Assay type in all cases: physicochemical
[1] = Stability of API at 40° C./75% RH (percent purity)
Text: (§1) Therefore the inventors of the present invention have tried to develop a stable formulation of API such that the API is protected and cannot absorb moisture.

[2] = Moisture absorption of API at 40° C./75% RH (water by KF)
Text: as §1

[3] = Sulfoxide impurity level over six months
Text: Further, one of the impurity (sulfoxide) which was being generated in API increases from 0.17% to 0.76% over a period of 6 months. […] Therefore stabilization of compositions containing compounds of formula (I) can be made by maintaining the microenvironmental pH of composition above 7 by using suitable alkalinizers. Use of a suitable antioxidant(s) and chelating agent(s) further stabilizes the formulation.

[4] = pH degradation of API in standard pH buffers (sulfoxide impurity at 0.3 RRT); settings: different standard pH buffers, after 24 hours
Procedure: FIG. 1: Percentage of sulfoxide impurity level (0.3 RRT) at different pH after 24 hours.
When the pH was modulated by addition of alkalinizer(s) then sulfoxide impurity level in API is restricted.
About 1% w/v aqueous dispersion of tablets was used for pH measurement. pH degradation can be seen with API when kept in different standard pH buffers.

CCO[C@@H](Cc1ccc(OCCn2c(C)ccc2-c2ccc(SC)cc2)cc1)C(=O)O [API, Saroglitazar Magnesium]
Percent Purity ([1]; 1 Month): 98.10% | Percent Purity ([1]; 2 Month): 97.93% | Percent Purity ([1]; 3 Month): 97.17% | Percent Purity ([1]; Initial): 98.48% | Water By KF ([2]; 1 Month): 1.17% | Water By KF ([2]; 2 Month): 2.32% | Water By KF ([2]; 3 Month): 2.57% | Water By KF ([2]; Initial): 0.62% | sulfoxide impurity level ([3]; after 6 months): 0.76% | sulfoxide impurity level ([3]; start of the six month period): 0.17% | Percentage individual impurity at 0.3 RRT (Sulphoxide impurity) [4]: restricted; also recorded: decreases as the solution of pH increases above pH 7
